According to patent US11667649B2, “Heteroaromatic macrocyclic ether chemotherapeutic agents” (Nuvalent, Inc., priority 2020, dated 2023):
pKi: −log10 of the molar value.

What was measured:
[1] = biological target: T1, ALK L1196M/G1202R kinase domain (Homo sapiens, UniProt Q9UM73, G1202R/L1196M); assay: Biochemical kinase assay, ALK L1196M/G1202R; settings: 2 mM ATP substrate solution, read-out: Ki^app ALK-L1196M-G1202R
T1 construct: TRKA-wt (1 nM, BPS Bio, 40280) kinase domains in buffer; purchased SignalChem A19-12NG
Description: (§1) First, 250 nL of compound dissolved in DMSO (100-fold of the desired concentration) was dispensed into a 384-well plate. A 12.5 μL substrate solution containing ATP (2 mM) and fluorogenic phosphorylation substrate AQT0101 (26 μM for ALK and ROS1, AssayQuant) or AQT0104 (26 μM for TRKA, AssayQuant) in buffer (50 mM HEPES pH 7.5, 0.01% Brij-35, 0.5 mM EGTA, 10 mM MgCl2) was added and mixed thoroughly. Then, a 12.5 μL kinase solution containing ALK-wt (1.5 nM, Carna, 08-518), ALK ALK L1196M/G1202R (3 nM, SignalChem, A19-12NG), ROS1-wt (0.6 nM, Carna, 08-163), ROS1-G2032R (0.5 nM, SignalChem, R14-12BG), or TRKA-wt (1 nM, BPS Bio, 40280) kinase domains in buffer ([…] HEPES pH 7.5, 0.01% Brij-35, 2% glycerol, 0.4 mg/mL BSA, 0.5 mM EGTA, and 10 mM MgCl2) was added and mixed thoroughly. The plate was sealed and read by SpectraMax Paradigm at λ=485 nm every 2 minutes for 120 minutes at 30° C. Initial rates of reaction (v) were calculated from the change in fluorescence intensity over time during the initial, linear portion of the reaction. Finally, apparent inhibitory constants (Ki^app) were determined from regression of v and I (inhibitor concentration) to Morrison Equation (E=enzyme concentration): […]

[2] = biological target: T2, ALK-wt kinase domain (Homo sapiens, UniProt Q9UM73); assay: Biochemical kinase assay, ALK-wt; settings: 2 mM ATP substrate solution, read-out: Ki^app ALK-wt
T2 construct: TRKA-wt (1 nM, BPS Bio, 40280) kinase domains in buffer; purchased Carna 08-518
Description: as §1

[3] = biological target: T3, ROS1-wt kinase domain (Homo sapiens, UniProt P08922); assay: Biochemical kinase assay, ROS1-wt; settings: 2 mM ATP substrate solution, read-out: Ki^app ROS1-wt
T3 construct: TRKA-wt (1 nM, BPS Bio, 40280) kinase domains in buffer; purchased Carna 08-163
Description: as §1

[4] = biological target: T4, TRKA-wt kinase domain (Homo sapiens, UniProt P04629); assay: Biochemical kinase assay, TRKA-wt; settings: 2 mM ATP substrate solution, read-out: Ki^app TRKA-wt
T4 construct: TRKA-wt (1 nM, BPS Bio, 40280) kinase domains in buffer; purchased BPS Bio 40280
Description: as §1

[5] = biological target: T5, ROS1-G2032R kinase domain (Homo sapiens, UniProt P08922, G2032R); assay: Biochemical kinase assay, ROS1-G2032R; settings: 2 mM ATP substrate solution, read-out: Ki^app ROS1-G2032R
T5 construct: TRKA-wt (1 nM, BPS Bio, 40280) kinase domains in buffer; purchased SignalChem R14-12BG
Description: as §1

SMILES | pKi [1] | pKi [2] | pKi [3] | pKi [4] | pKi [5]
CCc1noc2c1-c1cnc(N)c(c1)O[C@H](C)c1cc(F)cc(F)c1-c1nn(C)cc1C2 [Compound 90] | > 7.30 | > 7.30 | > 7.30 | 6.30 to 7.30 | > 7.30
C[C@H]1Oc2cc(cnc2N)-c2c(cnn2C2COC2)Cc2cn(C)nc2-c2ccc(F)cc21 [Compound 139] | > 7.30 | > 7.30 | > 7.30 | 6.30 to 7.30 | > 7.30
Cc1cc2n(n1)-c1ccc(F)cc1[C@@H](C)Oc1cc(cnc1N)-c1c(c(C)nn1CC1CC1)C2 [Compound 141] | > 7.30 | > 7.30 | > 7.30 | 6.30 to 7.30 | > 7.30
CCn1ncc2c1-c1cnc(N)c(c1)OCc1cc(F)ccc1-c1nc(C)sc1C2 [Compound 89] | > 7.30 | > 7.30 | > 7.30 | < 6.30 | > 7.30
CCc1c(C#N)nn2c1-c1cnc(N)c(c1)O[C@H](C)c1cc(F)ccc1-c1nn(C)cc1C2 [Compound 6] | > 7.30 | > 7.30 | > 7.30 | 6.30 to 7.30 | > 7.30
CCn1ncc2c1-c1cnc(N)c(c1)O[C@H](C)c1cc(F)ccc1-c1nccc(OC)c1C2 [Compound 151] | > 7.30 | > 7.30 | > 7.30 | > 7.30 | > 7.30
C[C@H]1Oc2cc(cnc2N)-c2c(C#N)nnn2Cc2cccnc2-c2ccc(F)cc21 [Compound 25] | 6.30 to 7.30 | > 7.30 | > 7.30 | < 6.30 | 6.30 to 7.30
CC1Oc2cc(cnc2N)-c2c(n[nH]c2C#N)Cc2cnn(C)c2-c2ccc(F)cc21 (stereo not shown) [Compound 168] | > 7.30 | > 7.30 | > 7.30 | < 6.30 | > 7.30
CCn1nc(Cl)c2c1-c1cnc(N)c(c1)O[C@H](C)c1cc(F)ccc1-n1nc(C)cc1C2 [Compound 76] | > 7.30 | > 7.30 | > 7.30 | > 7.30 | > 7.30
CC1Oc2cc(cnc2N)-c2c(cnn2CCF)Cn2ccnc2-c2ccc(F)cc21 (stereo not shown) [Compound 39] | 6.30 to 7.30 | > 7.30 | > 7.30 | < 6.30 | > 7.30
CCn1ncc2c1-c1cnc(N)c(c1)O[C@H](C)c1cc(F)ccc1-n1nc(C(F)F)cc1C2 [Compound 102] | > 7.30 | > 7.30 | > 7.30 | > 7.30 | > 7.30
C[C@H]1Oc2cc(cnc2N)-c2c(CC(F)F)noc2Cc2cn(C)nc2-c2ccc(F)cc21 [Compound 85] | > 7.30 | > 7.30 | > 7.30 | < 6.30 | > 7.30
Cc1nc2c(s1)Cn1cnc(C#N)c1-c1cnc(N)c(c1)O[C@H](C)c1cc(F)ccc1-2 [Compound 65] | > 7.30 | > 7.30 | > 7.30 | < 6.30 | > 7.30
CCn1nnc2c1-c1cnc(N)c(c1)O[C@H](C)c1cc(F)ccc1-c1nc(C)sc1C2 [Compound 78] | > 7.30 | > 7.30 | > 7.30 | 6.30 to 7.30 | > 7.30
C[C@H]1Oc2cc(cnc2N)-c2c(C#N)ncn2Cc2scnc2-c2ccc(F)cc21 [Compound 64] | > 7.30 | > 7.30 | > 7.30 | < 6.30 | > 7.30
COc1cc2n(n1)-c1ccc(F)cc1[C@@H](C)Oc1cc(cnc1N)-c1c(nnn1CC1CC1)C2 [Compound 144] | > 7.30 | > 7.30 | > 7.30 | 6.30 to 7.30 | > 7.30
C[C@H]1Oc2cc(cnc2N)-c2c(C#N)ncn2Cc2cn(C)nc2-c2ccc(F)cc21 [Compound 13] | > 7.30 | > 7.30 | > 7.30 | < 6.30 | > 7.30
C[C@H]1Oc2cc(cnc2N)-c2c(nnn2CC2CC2)Cc2cccnc2-c2ccc(F)cc21 [Compound 116] | > 7.30 | > 7.30 | > 7.30 | 6.30 to 7.30 | > 7.30

SMILES | pKi [1] | pKi [2] | pKi [3] | pKi [4] | pKi [5]
CCc1noc2c1-c1cnc(N)c(n1)O[C@H](C)c1cc(F)ccc1-c1nn(C)cc1C2 [Compound 162] | > 7.30 | > 7.30 | > 7.30 | > 7.30 | > 7.30
C[C@H]1Oc2cc(cnc2N)-c2c(CC3CC3)cnn2Cc2cccnc2-c2ccc(F)cc21 [Compound 146] | > 7.30 | > 7.30 | > 7.30 | 6.30 to 7.30 | > 7.30
CCn1ncc2c1-c1cnc(N)c(c1)O[C@H](C)c1cc(F)ccc1-n1nc(C(F)(F)F)cc1C2 [Compound 52] | > 7.30 | > 7.30 | > 7.30 | 6.30 to 7.30 | > 7.30
CCn1ncc2c1-c1cnc(N)c(c1)O[C@H](C)c1cc(F)ccc1-c1nn(C)cc1C2 [Compound 1] | > 7.30 | > 7.30 | > 7.30 | > 7.30 | > 7.30
CCn1ncc2c1-c1ccc(F)cc1[C@@H](C)Oc1cc(cnc1N)-c1c(cnn1C)C2 [Compound 4] | > 7.30 | > 7.30 | > 7.30 | > 7.30 | > 7.30
CCn1ncc2c1-c1cnc(N)c(c1)O[C@H](C)c1cc(F)ccc1-n1nc(Br)cc1C2 [Compound 80] | > 7.30 | > 7.30 | > 7.30 | > 7.30 | > 7.30
CCn1ncc2c1-c1cnc(N)c(c1)OCc1cc(F)ccc1-n1nc(C(F)(F)F)cc1C2 [Compound 92] | > 7.30 | > 7.30 | > 7.30 | < 6.30 | > 7.30
C[C@H]1Oc2cc(cnc2N)-c2c(C#N)nnn2Cc2cn(C)nc2-c2ccc(F)cc21 [Compound 24] | > 7.30 | > 7.30 | > 7.30 | < 6.30 | 6.30 to 7.30
C[C@H]1Oc2cc(cnc2N)-c2c(cnn2CC(F)F)Cc2cn(C)nc2-c2ccc(F)cc21 [Compound 22] | > 7.30 | > 7.30 | > 7.30 | < 6.30 | > 7.30
Cc1nc(C#N)c2n1Cc1cccnc1-c1ccc(F)cc1[C@@H](C)Oc1cc-2cnc1N [Compound 18] | > 7.30 | > 7.30 | > 7.30 | < 6.30 | > 7.30
CCn1ncc2c1-c1cnc(N)c(c1)O[C@H](C)c1cc(F)ccc1-c1ncccc1C2 [Compound 3] | > 7.30 | > 7.30 | > 7.30 | > 7.30 | > 7.30
CCn1cc2c(n1)-c1ccc(F)cc1[C@@H](C)Oc1cc(cnc1N)-c1c(cnn1CC1CC1)C2 [Compound 140] | > 7.30 | > 7.30 | > 7.30 | 6.30 to 7.30 | > 7.30
C[C@H]1Oc2cc(cnc2N)-c2c(c(C#N)nn2CC2CC2)Cc2cccnc2-c2ccc(F)cc21 [Compound 123] | > 7.30 | > 7.30 | > 7.30 | < 6.30 | > 7.30
C[C@H]1Oc2cc(cnc2N)-c2c(nnn2CC2CC2)Cc2cc(C(F)F)nn2-c2ccc(F)cc21 [Compound 122] | > 7.30 | > 7.30 | > 7.30 | 6.30 to 7.30 | > 7.30
CCn1nnc2c1-c1cnc(N)c(c1)O[C@H](C)c1cc(F)ccc1-c1sncc1C2 [Compound 93] | > 7.30 | > 7.30 | > 7.30 | 6.30 to 7.30 | > 7.30
C[C@H]1Oc2cc(cnc2N)-c2c(cnn2C2CCC2)Cc2cnn(C)c2-c2ccc(F)cc21 [Compound 5] | > 7.30 | > 7.30 | > 7.30 | < 6.30 | > 7.30
CCn1nc(C)c2c1-c1cnc(N)c(c1)O[C@H](C)c1cc(F)ccc1-c1nn(C)cc1C2 [Compound 81] | > 7.30 | > 7.30 | > 7.30 | 6.30 to 7.30 | > 7.30
